The values that follow come from US12570671B2 (BRISTOL-MYERS SQUIBB COMPANY, priority 2020, dated 2026).

In one assay the target is Helios (Homo sapiens, UniProt Q96SW2+Q9UKS7). Put plainly: Helios Cellular Degradation Assay (Helios readout). The assay is classed as cell-based. Also noted: endogenous in cells; host or cells: Jurkat. To be noted: Jurkat cells, 72 h incubation, Helios-PE antibody staining, flow cytometry; read-out: Helios Jurkat IC50. The method in brief: (§1)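 Jurkat cells (80,000/well, RPMI+10% FBS) were treated with compound for 72 h at 37° C. After fixation and permeabilization they were stained with fluorescent antibodies to Helios, Ikaros and Aiolos. Intracellular protein levels were quantified by flow cytometry.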
Helios, sequence (Q9UKS7 whole entry): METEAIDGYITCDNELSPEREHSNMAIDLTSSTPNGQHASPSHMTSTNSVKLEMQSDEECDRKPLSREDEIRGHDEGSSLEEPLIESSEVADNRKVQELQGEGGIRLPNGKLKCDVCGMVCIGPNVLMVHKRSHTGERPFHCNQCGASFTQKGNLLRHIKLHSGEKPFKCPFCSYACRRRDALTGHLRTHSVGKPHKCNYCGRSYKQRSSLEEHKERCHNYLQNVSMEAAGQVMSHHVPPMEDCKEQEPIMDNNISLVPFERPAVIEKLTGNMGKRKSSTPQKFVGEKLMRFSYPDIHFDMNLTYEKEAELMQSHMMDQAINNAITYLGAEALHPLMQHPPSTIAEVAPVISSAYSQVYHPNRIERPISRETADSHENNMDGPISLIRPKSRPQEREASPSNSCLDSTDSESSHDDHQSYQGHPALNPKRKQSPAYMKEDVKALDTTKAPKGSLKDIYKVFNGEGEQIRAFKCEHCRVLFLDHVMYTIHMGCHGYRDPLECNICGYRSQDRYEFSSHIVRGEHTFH
Helios, sequence (Q96SW2 whole entry): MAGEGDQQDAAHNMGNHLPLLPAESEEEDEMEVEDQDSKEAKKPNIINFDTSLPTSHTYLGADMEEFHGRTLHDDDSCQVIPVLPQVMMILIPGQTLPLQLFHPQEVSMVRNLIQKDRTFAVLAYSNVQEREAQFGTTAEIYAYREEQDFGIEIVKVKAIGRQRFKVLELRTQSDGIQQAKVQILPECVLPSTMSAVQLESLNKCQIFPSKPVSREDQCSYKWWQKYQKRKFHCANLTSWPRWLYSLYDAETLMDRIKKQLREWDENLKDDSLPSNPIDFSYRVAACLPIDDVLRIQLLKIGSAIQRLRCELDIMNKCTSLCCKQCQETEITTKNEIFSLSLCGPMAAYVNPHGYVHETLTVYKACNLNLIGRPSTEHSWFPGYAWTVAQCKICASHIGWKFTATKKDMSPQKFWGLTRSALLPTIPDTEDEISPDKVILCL
Helios, sequence (Q16531 whole entry partner): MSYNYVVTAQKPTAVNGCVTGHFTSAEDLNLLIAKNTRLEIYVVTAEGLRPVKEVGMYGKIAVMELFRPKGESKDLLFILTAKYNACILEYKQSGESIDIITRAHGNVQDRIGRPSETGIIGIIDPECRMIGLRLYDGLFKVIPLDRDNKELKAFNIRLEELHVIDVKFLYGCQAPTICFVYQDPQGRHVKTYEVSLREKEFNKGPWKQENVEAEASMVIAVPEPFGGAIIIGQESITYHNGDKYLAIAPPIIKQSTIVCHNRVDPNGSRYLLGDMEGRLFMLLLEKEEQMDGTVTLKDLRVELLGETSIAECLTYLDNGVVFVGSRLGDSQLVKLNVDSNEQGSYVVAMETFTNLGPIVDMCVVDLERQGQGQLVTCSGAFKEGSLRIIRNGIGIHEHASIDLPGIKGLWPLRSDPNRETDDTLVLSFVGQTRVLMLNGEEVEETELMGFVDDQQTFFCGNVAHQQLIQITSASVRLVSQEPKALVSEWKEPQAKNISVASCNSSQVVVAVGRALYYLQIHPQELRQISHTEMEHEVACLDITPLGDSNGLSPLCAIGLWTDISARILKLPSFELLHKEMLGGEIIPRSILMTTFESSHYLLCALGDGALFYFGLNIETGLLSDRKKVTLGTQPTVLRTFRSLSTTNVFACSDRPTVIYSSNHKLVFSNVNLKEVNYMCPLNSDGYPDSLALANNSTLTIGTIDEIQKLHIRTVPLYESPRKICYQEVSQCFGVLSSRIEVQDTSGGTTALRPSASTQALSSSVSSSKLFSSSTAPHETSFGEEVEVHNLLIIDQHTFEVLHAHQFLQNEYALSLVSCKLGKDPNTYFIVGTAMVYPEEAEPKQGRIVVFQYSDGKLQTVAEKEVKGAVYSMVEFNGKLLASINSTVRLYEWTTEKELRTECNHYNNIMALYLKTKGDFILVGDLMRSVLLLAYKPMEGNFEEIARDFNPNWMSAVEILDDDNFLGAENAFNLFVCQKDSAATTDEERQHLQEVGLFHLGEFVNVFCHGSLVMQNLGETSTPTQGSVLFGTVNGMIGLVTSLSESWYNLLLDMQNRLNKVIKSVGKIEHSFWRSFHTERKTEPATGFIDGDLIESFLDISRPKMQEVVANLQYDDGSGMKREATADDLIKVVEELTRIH
For orientation: In flow cytometry, cells or beads pass a laser one at a time.

A further assay has as its target Ikaros (Homo sapiens, UniProt Q13422+Q96SW2). The assay can be described thus: Helios Cellular Degradation Assay (Ikaros readout). On the set-up: endogenous in cells; host or cells: Jurkat. The assay is classed as cell-based. To be noted: Jurkat cells, 72 h incubation, Ikaros-Alexa488 antibody staining, flow cytometry; read-out: Ikaros Jurkat IC50. Summed up:
as §1

Ikaros, sequence (Q13422 whole entry): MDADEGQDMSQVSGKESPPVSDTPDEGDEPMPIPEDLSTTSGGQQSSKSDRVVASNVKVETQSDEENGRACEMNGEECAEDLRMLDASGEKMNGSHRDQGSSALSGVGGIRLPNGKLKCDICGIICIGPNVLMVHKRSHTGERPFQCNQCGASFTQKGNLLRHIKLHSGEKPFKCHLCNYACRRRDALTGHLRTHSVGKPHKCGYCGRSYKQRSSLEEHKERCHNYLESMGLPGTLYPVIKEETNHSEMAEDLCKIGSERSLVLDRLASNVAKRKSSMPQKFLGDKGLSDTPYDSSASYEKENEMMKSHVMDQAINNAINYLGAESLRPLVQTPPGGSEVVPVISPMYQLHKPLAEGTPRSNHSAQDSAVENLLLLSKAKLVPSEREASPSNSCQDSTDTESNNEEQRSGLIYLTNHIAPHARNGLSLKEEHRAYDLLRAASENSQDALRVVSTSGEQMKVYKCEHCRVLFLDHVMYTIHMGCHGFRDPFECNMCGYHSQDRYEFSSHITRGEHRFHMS
Ikaros, sequence (Q96SW2 whole entry): as the sequence (Q96SW2 whole entry) above
Ikaros, sequence (Q16531 whole entry partner): as the sequence (Q16531 whole entry partner) above

On to `Cc1cc(-c2ccc3c(c2)CN(C2CCC(=O)NC2=O)C3=O)nc(C)c1N` (centres unmarked) [Example 119, 3-(5-(5-amino-4,6-dimethylpyridin-2-yl)-1-oxoisoindolin-2-yl)piperidine-2,6-dione], for which the DC50 was 240 nM on Helios and no less than 10000 nM on Ikaros.

For the compound `Nc1cc(C(F)(F)F)cc(-c2ccc3c(c2)CN(C2CCC(=O)NC2=O)C3=O)n1` (centres unmarked) [Example 120, 3-(5-(6-amino-4-(trifluoromethyl)pyridin-2-yl)-1-oxoisoindolin-2-yl)piperidine-2,6-dione], the DC50 is 70 nM at Helios and no less than 10000 nM on Ikaros.

On to `Cc1cnc(-c2ccc3c(c2)CN(C2CCC(=O)NC2=O)C3=O)cc1C` (centres unmarked) [Example 121, 3-(5-(4,5-dimethylpyridin-2-yl)-1-oxoisoindolin-2-yl)piperidine-2,6-dione], for which the DC50 was determined as 40 nM at Helios and 1280 nM on Ikaros.

For the compound `O=C1CC[C@H](N2Cc3cc(-c4ccc5cccnc5n4)ccc3C2=O)C(=O)N1` [Example 122, (3S)-3-[5-(1,8-naphthyridin-2-yl)-1-oxo-2,3-dihydro-1H-isoindol-2-yl]piperidine-2,6-dione], the DC50 was 50 nM at Helios and no less than 20000 nM on Ikaros.

Regarding `Nc1cc2ccccc2c(-c2ccc3c(c2)CN([C@H]2CCC(=O)NC2=O)C3=O)n1` [Example 123, (S)-3-(5-(3-aminoisoquinolin-1-yl)-1-oxoisoindolin-2-yl)piperidine-2,6-dione], the DC50 was 80 nM on Helios and no less than 20000 nM on Ikaros.

As to `CC(=O)Nc1cc2ccccc2c(-c2ccc3c(c2)CN([C@H]2CCC(=O)NC2=O)C3=O)n1` [Example 124, (S)—N-(1-(2-(2,6-dioxopiperidin-3-yl)-1-oxoisoindolin-5-yl)isoquinolin-3-yl)acetamide], the DC50 at Helios was 80 nM; at Ikaros, no less than 20000 nM.

In the case of `N#Cc1nc(-c2ccc3c(c2)CN([C@H]2CCC(=O)NC2=O)C3=O)cc2ccccc12` [Example 125, 3-{2-[(3 S)-2,6-dioxopiperidin-3-yl]-1-oxo-2,3-dihydro-1H-isoindol-5-yl}isoquinoline-1-carbonitrile], the DC50 is 40 nM on Helios and no less than 20000 nM at Ikaros.

Take `NC(=O)c1nc(-c2ccc3c(c2)CN([C@H]2CCC(=O)NC2=O)C3=O)cc2ccccc12` [Example 126, 3-{2-[(3S)-2,6-dioxopiperidin-3-yl]-1-oxo-2,3-dihydro-1H-isoindol-5-yl}isoquinoline-1-carboxamide]: the DC50 was 2990 nM at Helios and no less than 20000 nM at Ikaros.

As to `CC(=O)O[C@H]1CCOc2nc(-c3ccc4c(c3)CN([C@H]3CCC(=O)NC3=O)C4=O)ccc21` [Example 127, (4S)-7-{2-[(3S)-2,6-dioxopiperidin-3-yl]-1-oxo-2,3-dihydro-1H-isoindol-5-yl}-2H,3H,4H-pyrano[2,3-b]pyridin-4-yl acetate], the DC50 on Helios is 7460 nM; at Ikaros, no less than 20000 nM.

With `CC(=O)O[C@@H]1CCOc2nc(-c3ccc4c(c3)CN([C@H]3CCC(=O)NC3=O)C4=O)ccc21` [Example 128, (4R)-7-{2-[(3S)-2,6-dioxopiperidin-3-yl]-1-oxo-2,3-dihydro-1H-isoindol-5-yl}-2H,3H,4H-pyrano[2,3-b]pyridin-4-yl acetate], the DC50 was 2830 nM on Helios and no less than 20000 nM on Ikaros.

As for `CN(C)c1cnc(-c2ccc3c(c2)CN(C2CCC(=O)NC2=O)C3=O)c2cc(Cl)ccc12` (centres unmarked) [Example 129, 3-{5-[7-chloro-4-(dimethylamino)isoquinolin-1-yl]-1-oxo-2,3-dihydro-1H-isoindol-2-yl}piperidine-2,6-dione], the DC50 at Helios is 10 nM; at Ikaros, 90 nM.

Take `CN(C)C(=O)c1c(-c2ccc3c(c2)CN(C2CCC(=O)NC2=O)C3=O)nc(N)c2ccccc12` (centres unmarked) [Example 130, 1-amino-3-[2-(2,6-dioxopiperidin-3-yl)-1-oxo-2,3-dihydro-1H-isoindol-5-yl]-N,N-dimethylisoquinoline-4-carboxamide]: the DC50 is 450 nM at Helios and no less than 20000 nM on Ikaros.

Regarding `Cc1c(-c2ccc3c(c2)CN(C2CCC(=O)NC2=O)C3=O)nc(N)c2ccccc12` (centres unmarked) [Example 131, 3-[5-(1-amino-4-methylisoquinolin-3-yl)-1-oxo-2,3-dihydro-1H-isoindol-2-yl]piperidine-2,6-dione], the figures for the DC50 at Helios and at Ikaros were 140 nM and no less than 20000 nM, respectively.

Regarding `Nc1ccc(C2CC2)c(-c2ccc3c(c2)CN(C2CCC(=O)NC2=O)C3=O)n1` (centres unmarked) [Example 132, 3-[5-(6-amino-3-cyclopropylpyridin-2-yl)-1-oxo-2,3-dihydro-1H-isoindol-2-yl]piperidine-2,6-dione], the results for the DC50 at Helios and at Ikaros were 20 nM and no less than 20000 nM, respectively.

Regarding `Nc1ccc2c(-c3ccc4c(c3)CN(C3CCC(=O)NC3=O)C4=O)nccc2c1` (centres unmarked) [Example 133, 3-[5-(6-aminoisoquinolin-1-yl)-1-oxo-2,3-dihydro-1H-isoindol-2-yl]piperidine-2,6-dione], the results for the DC50 on Helios and on Ikaros were 10 nM and no less than 20000 nM, respectively.

Consider `CC(=O)Nc1ccc2c(-c3ccc4c(c3)CN(C3CCC(=O)NC3=O)C4=O)nccc2c1` (centres unmarked) [Example 134, N-{1-[2-(2,6-dioxopiperidin-3-yl)-1-oxo-2,3-dihydro-1H-isoindol-5-yl]isoquinolin-6-yl}acetamide], for which the results for the DC50 at Helios and on Ikaros were 100 nM and no less than 20000 nM, respectively.

Regarding `Nc1cc(CCl)cc(-c2ccc3c(c2)CN(C2CCC(=O)NC2=O)C3=O)n1` (centres unmarked) [Example 135, 3-{5-[6-amino-4-(chloromethyl)pyridin-2-yl]-1-oxo-2,3-dihydro-1H-isoindol-2-yl}piperidine-2,6-dione], the DC50 on Helios was 230 nM; on Ikaros, no less than 10000 nM.

Turning to `O=C1CCC(N2Cc3cc(-c4ccc5c(n4)NCCCC5)ccc3C2=O)C(=O)N1` (centres unmarked) [Example 136, 3-(1-oxo-5-{5H,6H,7H,8H,9H-pyrido[2,3-b]azepin-2-yl}-2,3-dihydro-1H-isoindol-2-yl) piperidine-2,6-dione], the DC50 is 290 nM on Helios and no less than 10000 nM on Ikaros.

On to `O=C1CCC(N2Cc3cc(-c4ccc5c(n4)NCCC5)ccc3C2=O)C(=O)N1` (centres unmarked) [Example 137, 3-[1-oxo-5-(5,6,7,8-tetrahydro-1,8-naphthyridin-2-yl)-2,3-dihydro-1H-isoindol-2-yl]piperidine-2,6-dione], for which the results for the DC50 on Helios and on Ikaros were 10 nM and no less than 10000 nM, respectively.

In the case of `CN(C)Nc1cccc(-c2ccc3c(c2)CN(C2CCC(=O)NC2=O)C3=O)n1` (centres unmarked) [Example 138, 3-{5-[6-(2,2-dimethylhydrazin-1-yl)pyridin-2-yl]-1-oxo-2,3-dihydro-1H-isoindol-2-yl}piperidine-2,6-dione], the DC50 was 920 nM at Helios and no less than 10000 nM on Ikaros.

As to `O=C1CCC(N2Cc3cc(-c4ccc5[nH]cnc5n4)ccc3C2=O)C(=O)N1` (centres unmarked) [Example 139, 3-(5-(1H-imidazo[4,5-b]pyridin-5-yl)-1-oxoisoindolin-2-yl)piperidine-2,6-dione], the DC50 on Helios is 4160 nM; on Ikaros, no less than 20000 nM.

As to `Cc1cc(N)nc(-c2ccc3c(c2)CN(C2CCC(=O)NC2=O)C3=O)c1` (centres unmarked) [Example 140, 3-(5-(6-amino-4-methylpyridin-2-yl)-1-oxoisoindolin-2-yl)piperidine-2,6-dione], the DC50 on Helios was 20 nM; on Ikaros, no less than 20000 nM.

For the compound `O=C1CCC(N2Cc3cc(-c4ccc5c(n4)NCCO5)ccc3C2=O)C(=O)N1` (centres unmarked) [Example 141, 3-(5-(3,4-dihydro-2H-pyrido[3,2-b][1,4]oxazin-6-yl)-1-oxoisoindolin-2-yl)piperidine-2,6-dione], the results for the DC50 on Helios and on Ikaros were 80 nM and no less than 20000 nM, respectively.

As to `Nc1cncc(-c2ccc3c(c2)CN(C2CCC(=O)NC2=O)C3=O)n1` (centres unmarked) [Example 142, 3-(5-(6-aminopyrazin-2-yl)-1-oxoisoindolin-2-yl)piperidine-2,6-dione], the DC50 is 1350 nM at Helios and no less than 20000 nM on Ikaros.

Regarding `Cc1cc(-c2ccc3c(c2)CN(C2CCC(=O)NC2=O)C3=O)nc(N)n1` (centres unmarked) [Example 143, 3-(5-(2-amino-6-methylpyrimidin-4-yl)-1-oxoisoindolin-2-yl)piperidine-2,6-dione], the DC50 is 610 nM on Helios and no less than 20000 nM at Ikaros.

As to `Cc1cc(C)nc(-c2ccc3c(c2)CN(C2CCC(=O)NC2=O)C3=O)c1` (centres unmarked) [Example 144, 3-(5-(4,6-dimethylpyridin-2-yl)-1-oxoisoindolin-2-yl)piperidine-2,6-dione], the DC50 on Helios was 83 nM; at Ikaros it was no less than 20000 nM.

As for `O=C1CCC(N2Cc3cc(-c4nc(O)cc5c(Cl)cccc45)ccc3C2=O)C(=O)N1` (centres unmarked) [Example 145, 3-(5-(5-chloro-3-hydroxyisoquinolin-1-yl)-1-oxoisoindolin-2-yl)piperidine-2,6-dione], the DC50 on Helios was 10 nM; at Ikaros, no less than 20000 nM.

As to `COc1cc(C)cc(-c2ccc3c(c2)CN(C2CCC(=O)NC2=O)C3=O)n1` (centres unmarked) [Example 146, 3-(5-(6-methoxy-4-methylpyridin-2-yl)-1-oxoisoindolin-2-yl)piperidine-2,6-dione], the figures for the DC50 on Helios and on Ikaros were 190 nM and no less than 20000 nM, respectively.

On to `Cc1cc(O)nc(-c2ccc3c(c2)CN(C2CCC(=O)NC2=O)C3=O)c1` (centres unmarked) [Example 147, 3-(5-(6-hydroxy-4-methylpyridin-2-yl)-1-oxoisoindolin-2-yl)piperidine-2,6-dione], for which the values for the DC50 on Helios and at Ikaros were 310 nM and no less than 10000 nM, respectively.

Regarding `Cc1cc(-c2ccc3c(c2)CN(C2CCC(=O)NC2=O)C3=O)nc(N)c1C#N` (centres unmarked) [Example 148, 2-amino-6-(2-(2,6-dioxopiperidin-3-yl)-1-oxoisoindolin-5-yl)-4-methylnicotinonitrile], the values for the DC50 on Helios and at Ikaros were 10 nM and no less than 10000 nM, respectively.

Take `N#Cc1cc(N)nc(-c2ccc3c(c2)CN(C2CCC(=O)NC2=O)C3=O)c1` (centres unmarked) [Example 149, 2-amino-6-(2-(2,6-dioxopiperidin-3-yl)-1-oxoisoindolin-5-yl)isonicotinonitrile]: the DC50 at Helios was 190 nM; on Ikaros, no less than 10000 nM.
